Data from US20110065694A1 (priority 2009, published 2011).
Where two headings read alike, the source gives them in different places.

Molecular target: human histamine H3 receptor (Homo sapiens, UniProt Q9Y5N1)
Test: H3 GTPγS assay (SPA method), histamine H3 in vitro assay
Assay type: biochemical
Procedure: Briefly, cells expressing the human histamine H3 receptor were homogenized in 15 mM Tris-HCl pH 7.5, 2 mM MgCl2, 0.3 mM EDTA, and 1 mM EGTA. […] Membranes were frozen in liquid nitrogen until use. On the day of the assay, membranes were thawed and diluted in assay buffer (20 mM HEPES pH 7.4, 100 mM NaCl, 10 μg/ml saponin, 1 mM MgCl2) to give 500 μg/ml and mixed (v/v) with GDP in assay buffer for a final GDP concentration of 10 μM and incubated on ice for at least […]. PVT-WGA beads (Amersham, RPNQ001) were diluted in assay buffer at 50 mg/mL and mixed with GTPγ[^35S] (Amersham, SJ1308) diluted in assay buffer to give ˜25,000 dpm/10 μL and mixed vol/vol just before the start of the reaction.
For antagonists testing, 10 μL of a reference agonist ([…]) instead of 10 μL buffer was added at a concentration corresponding to the EC80 (30 nM).
The compounds provided herein were tested in the histamine H3 in vitro assay. In one embodiment, the respective HCl salts of the compounds provided herein were prepared using standard chemical procedures and tested in the histamine H3 in vitro assay.

[1] = membranes of cells expressing human H3, GTPγ[35S] SPA, antagonist testing with reference agonist at EC80 (30 nM), in one embodiment HCl salts tested, read-out: Potency (functional potency as indicated by IC50)

human histamine H3 receptor, sequence (Q9Y5N1 whole entry): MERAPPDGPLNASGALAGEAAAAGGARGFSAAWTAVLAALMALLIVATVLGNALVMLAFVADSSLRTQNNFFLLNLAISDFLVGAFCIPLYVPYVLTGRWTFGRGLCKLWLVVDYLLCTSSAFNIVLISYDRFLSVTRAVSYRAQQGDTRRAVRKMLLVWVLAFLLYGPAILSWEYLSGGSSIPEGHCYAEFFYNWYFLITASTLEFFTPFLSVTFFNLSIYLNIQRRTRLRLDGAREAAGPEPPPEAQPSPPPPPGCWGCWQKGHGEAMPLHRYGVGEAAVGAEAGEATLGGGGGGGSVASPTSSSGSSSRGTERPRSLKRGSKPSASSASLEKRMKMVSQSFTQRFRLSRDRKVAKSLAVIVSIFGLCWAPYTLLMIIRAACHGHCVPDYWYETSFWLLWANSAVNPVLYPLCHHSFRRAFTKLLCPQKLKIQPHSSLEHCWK

Row | IC50 [1] | SMILES | IC50
1 | < 10 nM | c1cn2cc(-c3ccc4c(c3)nc3n4CCN4CCCC4C3)ccc2n1 (single isomer, unassigned) [Compound 77] | –
2 | < 100 nM | CC1Cc2nc3cc(Br)ccc3n2CCN1C1CCC1 (stereo not shown) [Compound 40, 8-bromo-3-cyclobutyl-4-methyl-2,3,4,5-tetrahydro-1H-benzo[4,5]imidazo[1,2-d][1,4]diazepine] | –
3 | < 100 nM | c1cn2cc(-c3ccc4c(c3)nc3n4CCN4CCCC[C@H]4C3)ccc2n1 [Compound 49, (S)-11-(imidazo[1,2-a]pyridin-6-yl)-1,2,3,4,6,7,14,14a-octahydrobenzo[4,5]imidazo[1,2-d]pyrido[2,1-g][1,4]diazepine] | –
4 | < 10 nM | N#Cc1ccc(-c2ccc3c(c2)nc2n3CCCN3CCCC3C2)cc1 (stereo not shown) [Compound 80, 4-(1,2,3,5,6,7,14,14a-octahydrobenzo[4,5]imidazo[1,2-a]pyrrolo[2,1-d][1,5]diazocin-11-yl)benzonitrile] | –
5 | < 100 nM | c1cn2cc(-c3ccc4c(c3)nc3n4CCN4CCCC4C3)ccc2n1 (single isomer, unassigned) [Compound 78] | –
6 | < 10 nM | N#Cc1ccc(-c2ccc3c(c2)nc2n3CCCN(C3CCC3)CC2)cc1 [Compound 58, 4-(3-cyclobutyl-1,2,3,4,5,6-hexahydrobenzo[4,5]imidazo[1,2-a][1,5]diazocin-10-yl)benzonitrile] | –
7 | < 10 nM | N#Cc1ccc(-c2ccc3c(c2)nc2n3CCN3CCCC3C2)cc1 (stereo not shown) [Compound 73, 4-(2,3,5,6,13,13a-hexahydro-1H-benzo[4,5]imidazo[1,2-d]pyrrolo[2,1-g][1,4]diazepin-10-yl)benzonitrile] | –
8 | < 10 nM | N#Cc1ccc(-c2ccc3c(c2)nc2n3CCN3CCCCC3C2)cc1 (single isomer, unassigned) [Compound 47] | –
9 | < 100 nM | N#Cc1ccc(-c2ccc3c(c2)nc2n3CCN3CCC[C@H]3C2)cn1 [Compound 5, (S)-5-(2,3,5,6,13,13a-hexahydro-1H-benzo[4,5]imidazo[1,2-d]pyrrolo[2,1-g][1,4]diazepin-10-yl)picolinonitrile] | –
10 | < 10 nM | CC1Cc2nc3cc(-c4ccc(C#N)cc4)ccc3n2CCN1C1CCC1 (stereo not shown) [Compound 41, 4-(3-cyclobutyl-4-methyl-2,3,4,5-tetrahydro-1H-benzo[4,5]imidazo[1,2-d][1,4]diazepin-8-yl)benzonitrile] | –

More lines, now with the values behind:

Row | SMILES | IC50 [1] | IC50
11 | CC(=O)Nc1ccc(-c2ccc3c(c2)nc2n3CC3CCC(C2)N3C2CCC2)cc1 (stereo not shown) [Compound 21, N-(4-(13-cyclobutyl-6,7,8,9,10,11-hexahydro-7,10-epiminobenzo[4,5]imidazo[1,2-a]azocin-3-yl)phenyl)acetamide] | < 10 nM | –
12 | c1cn2cc(-c3ccc4c(c3)nc3n4CC4CCC(C3)N4C3CCC3)ccc2n1 (stereo not shown) [Compound 60, 13-cyclobutyl-3-(imidazo[1,2-a]pyridin-6-yl)-6,7,8,9,10,11-hexahydro-7,10-epiminobenzo[4,5]imidazo[1,2-a]azocine] | < 10 nM | –
13 | c1ccc2c(c1)CCN(Cc1ccc3c(c1)nc1n3CCN3CCCC3C1)C2 (stereo not shown) [Compound 76, 10-((3,4-dihydroisoquinolin-2(1H)-yl)methyl)-2,3,5,6,13,13a-hexahydro-1H-benzo[4,5]imidazo[1,2-d]pyrrolo[2,1-g][1,4]diazepine] | < 10 nM | –
14 | c1cn2cc(-c3ccc4c(c3)nc3n4CCN4CCCCC4C3)ccc2n1 (stereo not shown) [Compound 15, 11-(imidazo[1,2-a]pyridin-6-yl)-1,2,3,4,6,7,14,14a-octahydrobenzo[4,5]imidazo[1,2-d]pyrido[2,1-g][1,4]diazepine] | < 10 nM | –
15 | c1cc2c(cc1CN1CCOCC1)nc1n2CCN(C2CCC2)C1 [Compound 56, 4-((2-cyclobutyl-1,2,3,4-tetrahydrobenzo-[4,5]imidazo[1,2-a]pyrazin-8-yl)methyl)morpholine] | < 10 nM | –
16 | N#Cc1ccc(-c2ccc3c(c2)nc2n3C3CCC2CN(C2CCC2)C3)cc1 (stereo not shown) [Compound 26, 4-(3-cyclobutyl-2,3,4,5-tetrahydro-1H-1,5-ethanobenzo[4,5]imidazo[1,2-d][1,4]diazepin-8-yl)benzonitrile] | – | < 100 nM
17 | c1cnc(-c2ccc3c(c2)nc2n3C3CCC2CN(C2CCC2)C3)cn1 (stereo not shown) [Compound 30, 3-cyclobutyl-8-(pyrazin-2-yl)-2,3,4,5-tetrahydro-1H-1,5-ethanobenzo[4,5]imidazo[1,2-d][1,4]diazepine] | < 100 nM | –
18 | Clc1ccc2c(c1)nc1n2CCCN(C2CCC2)CC1 [Compound 57, 10-chloro-3-cyclobutyl-1,2,3,4,5,6-hexahydrobenzo[4,5]imidazo[1,2-a][1,5]diazocine] | < 100 nM | –
19 | c1coc(-c2ccc3c(c2)nc2n3CC3CCC(C2)N3C2CCC2)c1 (stereo not shown) [Compound 19, 13-cyclobutyl-3-(furan-2-yl)-6,7,8,9,10,11-hexahydro-7,10-epiminobenzo[4,5]imidazo[1,2-a]azocine] | – | < 100 nM
20 | N#Cc1ccc(-c2ccc3c(c2)nc2n3CC3CCC(C2)N3C2CCC2)cc1 (stereo not shown) [Compound 20, 4-(13-cyclobutyl-6,7,8,9,10,11-hexahydro-7,10-epiminobenzo[4,5]imidazo[1,2-a]azocin-3-yl)benzonitrile] | < 10 nM | –
21 | c1ccc2c(c1)ncn2-c1ccc2c(c1)nc1n2CCN(C2CCC2)C1 [Compound 55, 8-(1H-benzo[d]imidazol-1-yl)-2-cyclobutyl-1,2,3,4-tetrahydrobenzo[4,5]imidazo[1,2-a]pyrazine] | < 1000 nM | –
22 | c1coc(-c2ccc3c(c2)nc2n3CCN3CCC[C@H]3C2)c1 [Compound 4, (5)-10-(furan-2-yl)-2,3,5,6,13,13a-hexahydro-1H-benzo[4,5]imidazo[1,2-d]pyrrolo[2,1-g][1,4]diazepine] | < 1000 nM | –
23 | N#Cc1ccc(-c2ccc3c(c2)nc2n3CCCN3CCCCC3C2)cc1 (stereo not shown) [Compound 66, 4-(2,3,4,6,7,8,15,15a-octahydro-1H-benzo[4,5]imidazo[1,2-a]pyrido[2,1-d][1,5]diazocin-12-yl)benzonitrile] | < 10 nM | –
24 | Brc1ccc2c(c1)nc1n2CCN2CCC[C@H]2C1 [Compound 1, (S)-10-bromo-2,3,5,6,13,13a-hexahydro-1H-benzo[4,5]imidazo[1,2-d]pyrrolo[2,1-g][1,4]diazepine] | – | < 1000 nM
25 | c1cn2cc(-c3ccc4c(c3)nc3n4CCCN4CCCCC4C3)ccc2n1 (stereo not shown) [Compound 67, 12-(imidazo[1,2-a]pyridin-6-yl)-2,3,4,6,7,8,15,15a-octahydro-1H-benzo[4,5]imidazo[1,2-a]pyrido[2,1-d][1,5]diazocine] | < 10 nM | –
26 | c1ccc2c(c1)ncn2-c1ccc2c(c1)nc1n2CCN2CCCCC2C1 (stereo not shown) [Compound 16, 11-(1H-benzo[d]imidazol-1-yl)-1,2,3,4,6,7,14,14a-octahydrobenzo[4,5]imidazo[1,2-d]pyrido[2,1-g][1,4]diazepine] | < 10 nM | –
27 | N#Cc1ccc(-c2ccc3c(c2)nc2n3C3CC(C2)N(C2CCC2)C3)cc1 (stereo not shown) [Compound 33, 4-(3-cyclobutyl-2,3,4,5-tetrahydro-1H-1,4-methanobenzo[4,5]imidazo[1,2-d][1,4]diazepin-8-yl)benzonitrile] | < 1000 nM | –
28 | c1ccc2c(c1)ncn2-c1ccc2c(c1)nc1n2CC2CCC(C1)N2C1CCC1 (stereo not shown) [Compound 61, 3-(1H-benzo[d]imidazol-1-yl)-13-cyclobutyl-6,7,8,9,10,11-hexahydro-7,10-epiminobenzo[4,5]imidazo[1,2-a]azocine] | < 100 nM | –
